Data from patent publication US9926330B2, “Inhibitors of IRAK4 activity” (MERCK SHARP & DOHME CORP., priority 2014, dated 2018).

Biological target: GST tagged IRAK4 (Homo sapiens (Human), UniProt Q9NWZ3)
Experiment: IRAK4 Kinase Assay (IMAP fluorescence polarization)
Type: biochemical
Conditions: 0.5 nM GST tagged IRAK4, 100 nM fluorescent peptide substrate RP7030, 100 μM ATP, 30 minutes at 25° C., IMAP FP readout
Protocol: The kinase activity of IRAK4 is determined by its ability to catalyze the phosphorylation of a fluorescent polypeptide substrate. The extent of phosphorylation is measured using the IMAP technology (Molecular Devices) where the phosphorylated fluorescent substrate binds to the large M(III)-based nanoparticles which reduces the rotational speed of the substrate and thus increases its fluorescent polarization (FP).
20 μL reaction mixture contains 10 mM TriHCl, pH 7.2, 0.5 nM GST tagged IRAK4 (SignalChem), 100 nM fluorescent peptide substrate (RP7030, Molecular Devices), 100 μM ATP, 1 mM DDT, 1 mM MgCl2, and 0.01% Tween 20. The reaction is initiated by the addition of ATP. After incubation for 30 minutes at 25° C., 60 μL of Progressive IMAP Reagent (Molecular Devices) is added to stop the reaction. Change in RP7030's FP is determined by a FP reader (Analyst HT, LJL BioSystems).

Sequence of GST tagged IRAK4 (Q9NWZ3 whole entry): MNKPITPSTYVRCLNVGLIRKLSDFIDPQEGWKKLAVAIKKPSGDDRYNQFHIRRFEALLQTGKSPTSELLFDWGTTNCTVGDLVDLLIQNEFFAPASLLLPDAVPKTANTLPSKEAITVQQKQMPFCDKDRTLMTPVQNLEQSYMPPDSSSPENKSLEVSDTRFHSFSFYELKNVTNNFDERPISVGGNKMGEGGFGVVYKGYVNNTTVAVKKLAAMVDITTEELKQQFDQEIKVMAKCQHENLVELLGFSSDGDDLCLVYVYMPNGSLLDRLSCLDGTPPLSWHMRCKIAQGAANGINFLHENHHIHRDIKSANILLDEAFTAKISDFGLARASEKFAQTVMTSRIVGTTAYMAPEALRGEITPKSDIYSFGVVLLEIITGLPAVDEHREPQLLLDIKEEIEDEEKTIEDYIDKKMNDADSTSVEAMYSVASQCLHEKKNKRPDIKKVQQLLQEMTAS

IC50	SMILES
46 nM	Cc1ccc2ncnc(N[C@H]3CC[C@H](NCC4CCOCC4)CC3)c2c1 [Example 2-18, trans-N-(6-methylquinazolin-4-yl)-N′-(tetrahydro-2H-pyran-4-ylmethyl)cyclohexane-1,4-diamine]
77 nM	Cc1ccc2ncnc(N[C@H]3CC[C@H](NCC4(C)COC4)CC3)c2c1 [Example 2-27, trans-N-[(3-methyloxetan-3-yl)methyl]-N′-(6-methylquinazolin-4-yl)cyclohexane-1,4-diamine]
9380 nM	Cc1ccc2ncnc(NC3CCC(N4CCC(C(F)(F)F)CC4)CC3)c2c1 (stereo not drawn) [Example 2-12, 6-methyl-N-{4-[4-(trifluoromethyl)piperidin-1-yl]cyclohexyl}quinazolin-4-amine]
47 nM	Cc1ccc2ncnc(N[C@H]3CC[C@H](NCc4ccnn4C)CC3)c2c1 [Example 2-26, trans-N-[(1-methyl-1H-pyrazol-5-yl)methyl]-N′-(6-methylquinazolin-4-yl)cyclohexane-1,4-diamine]
44 nM	Cc1ccc2ncnc(N[C@H]3CC[C@H](NC(C)C)CC3)c2c1 [Example 2-24, trans-N-(1-methylethyl)-N′-(6-methylquinazolin-4-yl)cyclohexane-1,4-diamine]
67 nM	Cc1ccc2ncnc(N[C@H]3CC[C@H](N[C@@H](C)CC(F)(F)F)CC3)c2c1 [Example 2-22, trans-N-(6-methylquinazolin-4-yl)-N′-[(1S)-3,3,3-trifluoro-1-methylpropyl]cyclohexane-1,4-diamine]
73 nM	Cc1ccc2ncnc(N[C@H]3CC[C@H](N[C@@H](C)C4CC4)CC3)c2c1 [Example 2-21, trans-N-[(1S)-1-cyclopropylethyl]-N′-(6-methylquinazolin-4-yl)cyclohexane-1,4-diamine]
234 nM	Cc1ccc2ncnc(N[C@H]3CC[C@H](N4CCC(F)(F)C4)CC3)c2c1 [Example 2-8, N-[trans-4-(3,3-difluoropyrrolidin-1-yl)cyclohexyl]-6-methylquinazolin-4-amine]
15 nM	FC(F)(F)c1ccc2ncnc(N[C@H]3CC[C@H](N4CCOCC4)CC3)c2c1 [Example 1-4, N-(trans-4-morpholin-4-ylcyclohexyl)-6-(trifluoromethyl)quinazolin-4-amine]
17 nM	Cc1ccc2ncnc(NC3CCC(N4CCCC(C(F)(F)F)C4)CC3)c2c1 (stereo not drawn) [Example 2-13, 6-methyl-N-{4-[3-(trifluoromethyl)piperidin-1-yl]cyclohexyl}quinazolin-4-amine]
8 nM	CCc1ccc2ncnc(N[C@H]3CC[C@H](N4CCOCC4)CC3)c2c1 [Example 3-4, 6-ethyl-N-(trans-4-morpholin-4-ylcyclohexyl)quinazolin-4-amine]
16 nM	CC(C)c1ccc2ncnc(NC3CCC(N(C)C)CC3)c2c1 (stereo not drawn) [Example 4-2, N,N-dimethyl-N′-[6-(1-methylethyl)quinazolin-4-yl]cyclohexane-1,4-diamine]
18 nM	CCc1ccc2ncnc(N[C@H]3CC[C@H](N(C)C)CC3)c2c1 [Example 4-1, (trans)-N1-(6-ethylquinazolin-4-yl)-N4,N4-dimethylcyclohexane-1,4-diamine]
65 nM	Cc1ccc2ncnc(O[C@H]3CC[C@H](N4CCOCC4)CC3)c2c1 [Example 1-7, 4-((trans)-4-((6-methylquinazolin-4-yl)oxy)cyclohexyl)morpholine]
94 nM	Cc1ccc2ncnc(N[C@H]3CC[C@H](N4CC(F)C4)CC3)c2c1 [Example 2-3, N-[trans-4-(3-fluoroazetidin-1-yl)cyclohexyl]-6-methylquinazolin-4-amine]
623 nM	Cc1ccc2ncnc(N[C@H]3CC[C@H](N4CCS(=O)(=O)CC4)CC3)c2c1 [Example 6-1, 4-((trans)-4-((6-methylquinazolin-4-yl)amino)cyclohexyl)thiomorpholine-1,1-dioxide]
1210 nM	Cc1cc2ncnc(N[C@H]3CC[C@H](N(C)C)CC3)c2cc1C [Example 1-1, (trans)-N1-(6,7-dimethylquinazolin-4-yl)-N4,N4-dimethylcyclohexane-1,4-diamine]
113 nM	Cc1ccc2ncnc(N[C@H]3CC[C@H](N4CCNC(=O)C4)CC3)c2c1 [Example 2-5, 4-{trans-4-[(6-methylquinazolin-4-yl)amino]cyclohexyl}piperazin-2-one]
11 nM	CCCc1ccc2ncnc(N[C@H]3CC[C@H](N4CCOCC4)CC3)c2c1 [Example 4-4, N-(trans-4-morpholin-4-ylcyclohexyl)-6-propylquinazolin-4-amine]
384 nM	Cc1ccc2ncnc(N[C@H]3CC[C@H](N4CC(S(C)(=O)=O)C4)CC3)c2c1 [Example 2-1, 6-methyl-N-((1R,4R)-4-(3-(methylsulfonyl)azetidin-1-yl)cyclohexyl)quinazolin-4-amine]
126 nM	Cc1ccc2ncnc(N[C@H]3CC[C@H](N[C@@H](C)C(F)F)CC3)c2c1 [Example 2-30, trans-N-[(1S)-2,2-difluoro-1-methylethyl]-N′-(6-methylquinazolin-4-yl)cyclohexane-1,4-diamine]
25 nM	Cc1ccc2ncnc(N[C@H]3CC[C@H](NCCC(F)(F)F)CC3)c2c1 [Example 2-28, trans-N-(6-methylquinazolin-4-yl)-N′-(3,3,3-trifluoropropyl)cyclohexane-1,4-diamine]
32 nM	Cc1cc2c(N[C@H]3CC[C@H](N4CCOCC4)CC3)ncnc2cc1F [Example 1-5, 7-fluoro-6-methyl-N-(trans-4-morpholin-4-ylcyclohexyl)quinazolin-4-amine]
54 nM	Cc1ccc2ncnc(N[C@H]3CC[C@H](N[C@H]4CCOC(C)(C)C4)CC3)c2c1 [Example 2-19, trans-N-[(4S)-2,2-dimethyltetrahydro-2H-pyran-4-yl]-N′-(6-methylquinazolin-4-yl)cyclohexane-1,4-diamine]
